Measurements from PubChem BioAssay (NCI).
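Interpolation was linear, between the two tested concentrations surrounding the appropriate level; five concentrations were tested over 48 hours in 96-well plates. Here, GI50 denotes the concentration required for 50% inhibition of growth. The concentration for full growth arrest is given as TGI.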

Key:
Test in all cases: NCI tumour cell line growth inhibition, 48 h
HOP-62 NSCLC = test system: HOP-62 NSCLC
A549 NSCLC = test system: A549 NSCLC
HT29 colon = test system: HT29 colon
SNB-19 CNS = test system: SNB-19 CNS
MDA-MB-231 breast = test system: MDA-MB-231 breast
SK-MEL-2 melanoma = test system: SK-MEL-2 melanoma
HL-60(TB) leukemia = test system: HL-60(TB) leukemia
MOLT-4 leukemia = test system: MOLT-4 leukemia
NCI-H23 lung = test system: NCI-H23 lung
SNB-75 CNS = test system: SNB-75 CNS

Row | SMILES | TGI (HOP-62 NSCLC) | TGI (A549 NSCLC) | TGI (HT29 colon) | TGI (SNB-19 CNS) | TGI (MDA-MB-231 breast) | TGI (SK-MEL-2 melanoma) | TGI (HL-60(TB) leukemia) | TGI (MOLT-4 leukemia) | TGI (NCI-H23 lung) | TGI (SNB-75 CNS) | GI50 (HOP-62 NSCLC)
1 | O=c1[nH]cc(N=Cc2cc(Cl)ccc2O)c(=O)[nH]1 | 53.7 µM | > 100 µM | > 100 µM | > 100 µM | > 100 µM | 64.5 µM | 52.6 µM | 63.1 µM | > 100 µM | – | –
2 | O=c1c2ccccc2nc(N/N=C/c2ccc([N+](=O)[O-])cc2)n1-c1ccccc1 | 67.5 µM | > 100 µM | > 100 µM | > 100 µM | > 100 µM | – | > 100 µM | > 100 µM | > 100 µM | 56.7 µM | –
3 | O=C1C=C(N2CCN(c3ncccn3)CC2)C(=O)c2c(O)ccc(O)c21 | > 100 µM | > 100 µM | > 100 µM | > 100 µM | > 100 µM | – | > 100 µM | > 100 µM | > 100 µM | – | –
4 | COC(=O)c1c2c(cc3c1CC1(Cc4cc5c(c(C)c4C1)CCC5)C3)CCC2 (stereo not given) | > 100 µM | > 100 µM | > 100 µM | > 100 µM | > 100 µM | > 100 µM | > 100 µM | > 100 µM | > 100 µM | – | –
5 | Cc1nc(C)c(N2CCN(CN)CC2)c(=O)[nH]1 | > 100 µM | > 100 µM | > 100 µM | > 100 µM | > 100 µM | – | > 100 µM | > 100 µM | > 100 µM | – | –
6 | Oc1ccc2ccccc2c1OCc1nnc(CCCCCCCCc2nnc(COc3c(O)ccc4ccccc34)n2Nc2ccccc2)n1Nc1ccccc1 | 41.9 µM | > 100 µM | 36.3 µM | > 100 µM | 61.1 µM | > 76.6 µM | – | > 100 µM | > 75.2 µM | > 100 µM | –
7 | Cc1ccc(-n2nncc2[Si](C)(C)C)s1 | – | > 100 µM | > 100 µM | > 100 µM | > 100 µM | > 100 µM | – | – | > 100 µM | – | –
8 | CC(c1ccccc1)n1cncc1C(=O)NN1CCN(C)CC1 (stereo not given) | > 10 µM | > 10 µM | > 10 µM | > 10 µM | > 10 µM | > 10 µM | > 10 µM | > 10 µM | > 10 µM | – | –
9 | Cc1cc2c(=O)c3ccc(Cl)cc3[nH]c2c(C(N)=O)c1C | > 100 µM | > 100 µM | > 100 µM | > 100 µM | – | > 100 µM | > 100 µM | > 100 µM | > 100 µM | > 100 µM | –
10 | O=[N+]([O-])c1ccc(N2N=C(c3c(O)ccc4ccccc34)CC2c2ccc(Cl)cc2)c([N+](=O)[O-])c1 (stereo not given) | 61.6 µM | 88.1 µM | 67 µM | – | 56.2 µM | 44.2 µM | – | 32.4 µM | > 100 µM | > 100 µM | –
11 | COc1cccc2c1OC1c3ccccc3OCC1(O)C2 (stereo not given) | > 100 µM | > 100 µM | > 100 µM | – | > 100 µM | > 100 µM | – | > 100 µM | > 100 µM | > 100 µM | –
12 | N/N=C(/N)SCCCCCCCCCCS/C(N)=N/N | > 100 µM | 50.3 µM | 27.7 µM | > 100 µM | 85.2 µM | 52.8 µM | 39.4 µM | – | > 100 µM | – | –
13 | COc1ccc(OC)c2c(C)ccnc12 | > 60.9 µM | 97.7 µM | > 100 µM | > 100 µM | > 100 µM | > 100 µM | – | – | > 96.1 µM | > 100 µM | –
14 | Oc1c(Cl)cc2cc1-c1cc(cc(Cl)c1O)CCc1c(cc(Cl)c(O)c1Cl)-c1cc(Cl)c(c(Cl)c1O)/C=C\2 | 16 µM | 23.9 µM | 25.2 µM | 26 µM | – | 17.5 µM | > 50 µM | > 50 µM | 33.6 µM | 17.6 µM | –
15 | COc1c(C)c(C/C=C(\C)CCCC(C)CCCC(C)CCCC(C)C)c(OC)c2ccccc12 (stereo not given) | – | > 100 µM | > 100 µM | > 100 µM | > 100 µM | > 100 µM | – | > 100 µM | > 100 µM | > 100 µM | –
16 | COc1ccc(/C=C2\CCCc3ccccc3C2=O)cc1 | 76.7 µM | > 54.4 µM | 14.6 µM | – | 42.1 µM | – | 9.55 µM | 35.3 µM | 7.76 µM | > 82.3 µM | –
17 | COC(=O)/C=C\n1nc(Br)c(=O)[nH]c1=O | > 100 µM | > 100 µM | > 100 µM | > 100 µM | > 100 µM | > 100 µM | > 100 µM | – | > 100 µM | > 100 µM | –
18 | O=C1c2ccncc2C(=O)c2c(O)ccc(O)c21 | 61.6 µM | 18.1 µM | 7.74 µM | 24.8 µM | – | – | 5.41 µM | 54.5 µM | – | 49.1 µM | –
19 | O=C1CC(c2ccsc2)n2cccc21 (stereo not given) | > 100 µM | > 100 µM | > 100 µM | > 100 µM | > 100 µM | > 100 µM | > 100 µM | – | > 100 µM | > 100 µM | –

Row | SMILES | TGI (HOP-62 NSCLC) | TGI (A549 NSCLC) | TGI (HT29 colon) | TGI (SNB-19 CNS) | TGI (MDA-MB-231 breast) | TGI (SK-MEL-2 melanoma) | TGI (HL-60(TB) leukemia) | TGI (MOLT-4 leukemia) | TGI (NCI-H23 lung) | TGI (SNB-75 CNS) | GI50 (HOP-62 NSCLC)
20 | Cc1ccc(N2C(=O)C3CSCN3C2=O)cc1 (stereo not given) | > 100 µM | > 100 µM | > 100 µM | > 100 µM | – | > 100 µM | > 100 µM | > 100 µM | > 100 µM | > 100 µM | –
21 | c1ccc2c[n+](CCCC[n+]3ccc4ccccc4c3)ccc2c1 | > 100 µM | > 100 µM | > 100 µM | > 100 µM | > 100 µM | > 100 µM | > 100 µM | – | > 100 µM | > 100 µM | –
22 | CCC1=C(C[C@H]2NCCc3cc(OC)c(OC)cc32)C[C@H]2c3cc(OC)c(OC)cc3CCN2C1 | 0.106 µM | – | 0.182 µM | – | – | 0.0713 µM | 0.0765 µM | > 100 µM | 0.0532 µM | 0.107 µM | –
23 | Cc1cn(C2CC(COCc3ccccc3)N(CCO[Si](C)(C)C(C)(C)C)O2)c(=O)[nH]c1=O (stereo not given) | 31 µM | 28.4 µM | 28.7 µM | 27.2 µM | 33.2 µM | 30 µM | – | 32.3 µM | 30.7 µM | – | –
24 | O=C1C=CC(=O)c2c(O)c(N3CCOCC3)c(Cl)c(O)c21 | 2.36 µM | 3.85 µM | 0.586 µM | 3.17 µM | 0.612 µM | 0.765 µM | – | > 2.13 µM | 0.589 µM | 2.04 µM | –
25 | CCOC(=O)C1CCC(=O)N1C(=O)c1cccc(Cl)c1 (stereo not given) | > 100 µM | > 100 µM | > 100 µM | > 100 µM | > 100 µM | – | > 100 µM | > 100 µM | > 100 µM | > 100 µM | –
26 | CC/C=C/c1cc2c(cc1O)CCC1C2CC[C@@]2(C)C1CC[C@@H]2O (stereo not given in full) | 16.7 µM | 20 µM | 21.1 µM | 17.4 µM | 18.1 µM | 6.29 µM | – | 18.8 µM | 20.2 µM | 8.14 µM | 2.69 µM
27 | C/C(=N\Nc1nc2ccccc2[nH]1)c1ncccn1 | 49.4 µM | > 93 µM | – | > 100 µM | > 29.2 µM | 17.7 µM | 0.0343 µM | > 100 µM | 8.58 µM | > 90.3 µM | –
28 | O=c1[nH]nc(-c2ccccc2)c2[nH]c3c(c12)Cc1ccccc1-3 | > 100 µM | > 100 µM | > 70 µM | > 100 µM | – | > 100 µM | 7.48 µM | > 25.2 µM | > 100 µM | > 43.3 µM | –
29 | Cc1ccc(S(=O)(=O)OCCC2CN(C(=O)OCc3ccccc3)C(C)(C)O2)cc1 (stereo not given) | – | > 100 µM | – | 27.3 µM | > 100 µM | 94.5 µM | 30 µM | 47.8 µM | 13.5 µM | – | –
30 | Cc1nc2ccc(Cl)cc2c2c1CCO2 | > 100 µM | > 100 µM | > 100 µM | > 100 µM | > 100 µM | – | > 100 µM | > 100 µM | > 100 µM | > 100 µM | –
31 | O=c1[nH]n(CCc2ccccc2CCl)c2ccc([N+](=O)[O-])cc12 | > 100 µM | > 100 µM | > 100 µM | > 100 µM | > 100 µM | > 100 µM | > 100 µM | > 100 µM | > 100 µM | – | –
32 | C/C(=C\Cc1ccc(F)cc1)CCCCCC/C(C)=C/Cc1ccc(F)cc1 | 37.2 µM | 31.7 µM | 33.3 µM | 75.9 µM | 37.9 µM | 37.2 µM | – | 47.6 µM | 24 µM | 35 µM | –
33 | Cn1c2ccccc2n2c3ncccc3c(=O)cc12 | > 100 µM | > 100 µM | > 100 µM | > 100 µM | > 100 µM | – | – | > 100 µM | > 100 µM | > 100 µM | –
34 | NC1CCCCC1NCCNC1CCCCC1N (stereo not given) | > 100 µM | 87.6 µM | 36 µM | > 100 µM | > 100 µM | > 100 µM | > 100 µM | > 100 µM | 96.8 µM | – | –
35 | C=CC(C)(C)/C=C/c1ccc(O)cc1 | > 100 µM | > 100 µM | > 100 µM | > 100 µM | > 100 µM | 60.5 µM | > 100 µM | > 100 µM | > 100 µM | – | –
36 | Nc1ccc2c(=O)cc(-c3ccc(Br)s3)[nH]c2n1 | > 100 µM | > 44.8 µM | > 44.2 µM | > 100 µM | > 94.8 µM | > 100 µM | – | 13.2 µM | > 23.4 µM | > 28.6 µM | –
37 | O=Nc1c(-c2c(O)[nH]c3ccc(I)cc23)[nH]c2ccccc12 | > 30.8 µM | > 30.4 µM | > 21.6 µM | > 62.1 µM | 9.77 µM | 4.93 µM | 6.96 µM | – | > 100 µM | 20.7 µM | –
